In paper PMC12930396, “Positive modulators of N-methyl-D-aspartate receptor: structure–activity relationship study on steroidal C-17 and C-20 oxime ethers” (RSC Advances, 2026):
Where “and” joins values, the source holds several entries; their conditions need not be identical. Identical values can stand only once.

Legend:
in vitro = conditions: pH 7.4
Method: The reactions were terminated by the addition of four volumes of ice-cold methanol, mixed vigorously, and left at −20 °C for 1h. After that, the samples were centrifuged and the supernatants were analysed by means of ECHO-MS® System (Sciex, Framingham, MA, USA). Zero time points were prepared by adding ice-cold methanol to the mixture of the compound with cofactors before the addition of microsomes. […] Intrinsic clearance (CLint) was calculated using the following formula: [drawing 4] where V is the incubation volume per milligram of microsomal protein (µL mg^−1) and t1/2 is the microsomal half-life.

[1] = Thermodynamic solubility in PBS pH 7.4; format: physicochemical; conditions: PBS pH 7.4, 20 °C, 24 h
Method: The reference samples were prepared as follows: a weight corresponding to 2.5 µmol was dissolved in 250 µL of DMSO, resulting in a concentration of 10 mM stock solution. Each calibration level standard was prepared by diluting the stock solution in a mixture of PBS and acetonitrile (50 : 50 v/v). The samples for testing were prepared as follows: the volume of 1000 µL of PBS was added to the testing tube containing a weight of sample corresponding to 0.4 mM. The mixture was shaken at 1000 rpm at 20 °C for 24 h. The mixture was then filtered using a syringe polypropylene 0.45 µm filter. Samples and calibration standards are prepared using an automated system of a robotic arm (PAL-RTC, Switzerland). Then, the sample was analysed on chromatographic system (Vanquish UHPLC, Thermo Fisher Scientific, Germany) connected to the diode array detector and consequently to the charged aerosol detector (both Vanquish, Thermo Fisher Scientific, Germany), Thermo Scientific Accucore C8 (100 × 3 mm; 2.6 µm) column, using gradient elution with acetonitrile/methanol/5 mM formate buffer (pH = 3.00); flow: 1.0 cm^3 min^−1; column temperature: 40 °C; CAD temperature: 30 °C; sample volume: 5 mm^3.

Stability in rat plasma = format: in vitro ADME; conditions: rat plasma, 37 °C
Method: Compounds were prepared as 1.6 mg mL^−1 stock solutions in methanol. Then, 20 µL of stock solution was added to 1000 µL of rat plasma (BioIVT, Cat. No. RAT00PLLH-0102307), maintained at 37 °C. Aliquots (50 µL) withdrawn at 0, 8, and 24 h were analyzed by HPLC. An aliquot of plasma was extracted with methanol (450 µL) containing an internal standard, and the solution was vortexed (20 s) and centrifuged at 13 500 rpm for 10 min. The supernatant was transferred to an autosampler vial, and 10 µL was injected into an LC-MS system. The samples were analyzed using an Agilent 6230 TOF LC/MS. Samples were separated on a Waters ACQUITY UPLC CSH Phenyl-Hexyl column (100 × 2.1, 130 Å, 1.7 µm) at a flow rate of 0.3 mL min^−1. […]. The temperature, the flow rate of the nitrogen drying gas, the pressure of the nitrogen nebulizing gas, and the flow rate of the sheath gas were set at 325 °C, 10 L min^−1, 40 psi, […], and 11 L min^−1, respectively. Results are represented as a percentage of the compound remaining in spiked plasma.

[2] = Stability in primary rat hepatocytes
Method: Primary rat hepatocytes were isolated from 12-weeks-old male Wistar rats (n = 3) by two-step collagenase liver perfusion. Tribromoethanol was used as an anesthetic agent at a dose of 250 mg kg^−1. […] Flow rate was maintained at 7 mL min^−1, and all solutions were kept at 37 °C. After in situ perfusion, the liver was excised, the liver capsule was opened, and cells were suspended in William's Medium E and filtered through a 70 µm membrane. Dead cells were removed by Percoll centrifugation (Percoll density: 1.06 g mL^−1, 50×g, 10 min, 20 °C) and additional centrifugation in William's Medium E (50×g, 5 min). Cells were subsequently diluted in William's Medium E, and their viability and cell suspension density were determined by Trypan Blue exclusion using a hemocytometer. […] Aliquots (50 µL) of the hepatocyte suspension were added to each test well of a 96-well plate, immediately followed by the addition of a 50 µL aliquot of the test compound or control solutions (final hepatocyte density – 0.5 × 10^6 mL^−1). […] At appropriate time-points, 40 µL aliquots were removed from the wells and placed in 1.1 mL microtubes containing 200 µL of methanol and used for LC-MS/MS analysis.
Elimination constant (kel), half-life (t1/2), and intrinsic clearance (CLint) were determined in plots of ln (percent remaining of parent compound) versus time, using linear regression analysis: k = −slope [drawing 6] [drawing 7]

CCON=C(C)C1CCC2C3CC=C4CC(OC(=O)CCCC(=O)O)CCC4(C)C3CCC12C (stereo not drawn) [Compound 12, 20-Oxo-pregn-5-en-3β-yl hemiglutarate O-ethyloxime]
Metabolic stability in rat liver microsomes (in vitro; 1 h, 10 µM): no detectable metabolism after 60 min | half-life at 10 µM (in vitro; rat, microsomes): > 1 h | Solubility PBS, pH 7.4 (thermodynamic) [1]: 361 ± 41 µM | solubility thermodynamic at 24 h ([1]; PBS, 20 °C, pH 7.4, aqueous buffer, thermodynamic from solid, read-out: Solubility PBS, pH 7.4 (thermodynamic)): > 350 µM | Stability in rat plasma (% remaining) 8 h (Stability in rat plasma; 8 h): 85.6 ± 1.0 % remaining and 86 ± 1 % remaining | Stability in rat plasma (% remaining) 24 h (Stability in rat plasma; 24 h): 59.6 ± 0.7 % remaining and 60 ± 1 % remaining | Stability in primary rat hepatocytes Clint ([2]; 3 µM, 0.5 × 10^6 cells mL^−1): 19.1 µL/min/mg | half-life at 3 µM ([2]; male, Wistar, rat, hepatocytes): 1.21 h | Metabolic stability in rat hepatocytes ([2]; rat, hepatocytes): moderate metabolic stability
